According to article PMC9247194, “Mapping of the sGC Stimulator BAY 41-2272 Binding Site on H-NOX Domain and Its Regulation by the Redox State of the Heme” (Frontiers in Cell and Developmental Biology, 2022):

Molecular target: T1, Ns H-NOX (Nostoc sp. PCC 7120 = FACHB-418, UniProt A0ACD6B960, C139A)
T1 construct: gene alr2278
Test: 1H-15N HSQC NMR titration (chemical shift perturbation)
Type: binding
Conditions: 298 K; heme-bound, no NO; surface site next to heme; one KD per perturbed residue

T1 sequence (A0ACD6B960 entry or part of it C139A): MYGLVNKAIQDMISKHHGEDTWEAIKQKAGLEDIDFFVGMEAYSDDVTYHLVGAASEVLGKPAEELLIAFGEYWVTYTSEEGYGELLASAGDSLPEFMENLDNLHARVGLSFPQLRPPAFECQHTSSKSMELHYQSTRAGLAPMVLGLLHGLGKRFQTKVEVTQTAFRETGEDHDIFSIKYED

Nc1nc(-c2nn(Cc3ccccc3F)c3ncccc23)ncc1C1CC1 [BAY 41-2272]
KD: yielding the binding constant (K D ) for each residue
